In patent publication US12479847B2 (DANA-FARBER CANCER INSTITUTE, INC., priority 2019, dated 2025):

What was measured:
Experiment in all cases: KINOMEscan (ScanMAX) kinase profiling
Type in all cases: binding
panel of 468 kinases [1] = biological target: T1, panel of 468 kinases (Homo sapiens, UniProt O00329); conditions: PIK3CD; 1 μM; read-out: % control
T1 construct: purchased KINOMEscan (ScanMAX) service
T1 sequence (O00329 1-1044): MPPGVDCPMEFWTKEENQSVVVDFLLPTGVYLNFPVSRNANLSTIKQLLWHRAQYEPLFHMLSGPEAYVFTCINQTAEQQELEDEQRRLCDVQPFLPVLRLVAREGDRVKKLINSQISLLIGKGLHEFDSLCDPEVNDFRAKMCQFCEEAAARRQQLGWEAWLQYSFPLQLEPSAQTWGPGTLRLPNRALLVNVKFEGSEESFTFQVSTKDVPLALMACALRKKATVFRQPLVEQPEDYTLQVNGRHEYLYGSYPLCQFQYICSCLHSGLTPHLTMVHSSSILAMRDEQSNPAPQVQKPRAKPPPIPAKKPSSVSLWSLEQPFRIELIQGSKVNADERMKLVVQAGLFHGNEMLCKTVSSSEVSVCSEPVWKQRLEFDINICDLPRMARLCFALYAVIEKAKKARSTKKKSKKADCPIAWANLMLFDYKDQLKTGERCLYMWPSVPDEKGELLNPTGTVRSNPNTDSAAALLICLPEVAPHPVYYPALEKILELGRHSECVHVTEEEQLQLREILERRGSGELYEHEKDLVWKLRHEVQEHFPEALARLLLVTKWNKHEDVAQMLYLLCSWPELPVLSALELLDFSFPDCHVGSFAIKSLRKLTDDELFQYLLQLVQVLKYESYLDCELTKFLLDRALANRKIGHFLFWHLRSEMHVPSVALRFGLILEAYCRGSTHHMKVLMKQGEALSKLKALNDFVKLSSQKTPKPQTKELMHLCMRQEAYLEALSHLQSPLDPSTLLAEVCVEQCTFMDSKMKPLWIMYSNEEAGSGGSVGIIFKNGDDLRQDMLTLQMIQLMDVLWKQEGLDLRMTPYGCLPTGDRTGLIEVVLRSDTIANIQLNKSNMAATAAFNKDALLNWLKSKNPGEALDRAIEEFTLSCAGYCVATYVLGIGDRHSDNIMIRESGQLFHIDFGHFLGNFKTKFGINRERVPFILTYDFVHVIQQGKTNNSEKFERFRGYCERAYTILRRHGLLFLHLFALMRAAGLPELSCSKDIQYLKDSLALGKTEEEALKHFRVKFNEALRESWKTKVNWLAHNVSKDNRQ

panel of 468 kinases [2] = biological target: T2, panel of 468 kinases (Homo sapiens, UniProt P06239); conditions: LCK; 1 μM; read-out: % control
T2 construct: purchased KINOMEscan (ScanMAX) service

panel of 468 kinases [3] = biological target: T3, panel of 468 kinases (Homo sapiens, UniProt P78362); conditions: SRPK2; 1 μM; read-out: % control
T3 construct: purchased KINOMEscan (ScanMAX) service

panel of 468 kinases [4] = biological target: T4, panel of 468 kinases (Homo sapiens, UniProt Q12866); conditions: MERTK; 1 μM; read-out: % control
T4 construct: purchased KINOMEscan (ScanMAX) service
T4 sequence (Q12866 21-999): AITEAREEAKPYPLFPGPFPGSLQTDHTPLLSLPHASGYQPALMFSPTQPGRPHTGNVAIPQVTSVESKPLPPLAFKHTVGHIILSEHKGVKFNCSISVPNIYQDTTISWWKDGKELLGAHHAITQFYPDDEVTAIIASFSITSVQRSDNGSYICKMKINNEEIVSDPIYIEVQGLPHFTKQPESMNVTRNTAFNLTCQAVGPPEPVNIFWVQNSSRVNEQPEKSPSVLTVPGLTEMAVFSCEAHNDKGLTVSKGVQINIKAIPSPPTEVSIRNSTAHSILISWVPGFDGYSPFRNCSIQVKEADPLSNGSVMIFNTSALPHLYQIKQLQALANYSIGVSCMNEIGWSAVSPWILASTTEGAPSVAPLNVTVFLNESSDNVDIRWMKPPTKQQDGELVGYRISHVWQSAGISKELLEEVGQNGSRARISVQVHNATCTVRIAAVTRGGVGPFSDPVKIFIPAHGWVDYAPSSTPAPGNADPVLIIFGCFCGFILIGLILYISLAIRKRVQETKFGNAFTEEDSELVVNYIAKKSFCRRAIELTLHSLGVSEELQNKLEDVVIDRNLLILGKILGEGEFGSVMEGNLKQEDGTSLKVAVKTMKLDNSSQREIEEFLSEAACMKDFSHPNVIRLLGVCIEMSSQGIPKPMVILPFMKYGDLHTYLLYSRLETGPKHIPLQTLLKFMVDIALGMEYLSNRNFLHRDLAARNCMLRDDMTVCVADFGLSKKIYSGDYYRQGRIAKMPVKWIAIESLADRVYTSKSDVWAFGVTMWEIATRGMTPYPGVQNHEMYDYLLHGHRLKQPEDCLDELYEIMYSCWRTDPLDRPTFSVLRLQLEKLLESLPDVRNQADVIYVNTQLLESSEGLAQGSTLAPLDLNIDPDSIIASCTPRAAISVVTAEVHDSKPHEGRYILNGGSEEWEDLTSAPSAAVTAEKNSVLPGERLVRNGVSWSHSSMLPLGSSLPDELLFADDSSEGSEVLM

panel of 468 kinases [5] = biological target: T5, panel of 468 kinases (Homo sapiens, UniProt Q14289); conditions: PYK2; 1 μM; read-out: % control
T5 construct: purchased KINOMEscan (ScanMAX) service

panel of 468 kinases [6] = biological target: T6, panel of 468 kinases (Homo sapiens, UniProt Q92918); conditions: HPK1; 1 μM; read-out: % control
T6 construct: purchased KINOMEscan (ScanMAX) service

panel of 468 kinases [7] = biological target: T7, panel of 468 kinases (Homo sapiens, UniProt Q96J92); conditions: WNK4; 1 μM; read-out: % control
T7 construct: purchased KINOMEscan (ScanMAX) service
T7 sequence (Q96J92 whole entry): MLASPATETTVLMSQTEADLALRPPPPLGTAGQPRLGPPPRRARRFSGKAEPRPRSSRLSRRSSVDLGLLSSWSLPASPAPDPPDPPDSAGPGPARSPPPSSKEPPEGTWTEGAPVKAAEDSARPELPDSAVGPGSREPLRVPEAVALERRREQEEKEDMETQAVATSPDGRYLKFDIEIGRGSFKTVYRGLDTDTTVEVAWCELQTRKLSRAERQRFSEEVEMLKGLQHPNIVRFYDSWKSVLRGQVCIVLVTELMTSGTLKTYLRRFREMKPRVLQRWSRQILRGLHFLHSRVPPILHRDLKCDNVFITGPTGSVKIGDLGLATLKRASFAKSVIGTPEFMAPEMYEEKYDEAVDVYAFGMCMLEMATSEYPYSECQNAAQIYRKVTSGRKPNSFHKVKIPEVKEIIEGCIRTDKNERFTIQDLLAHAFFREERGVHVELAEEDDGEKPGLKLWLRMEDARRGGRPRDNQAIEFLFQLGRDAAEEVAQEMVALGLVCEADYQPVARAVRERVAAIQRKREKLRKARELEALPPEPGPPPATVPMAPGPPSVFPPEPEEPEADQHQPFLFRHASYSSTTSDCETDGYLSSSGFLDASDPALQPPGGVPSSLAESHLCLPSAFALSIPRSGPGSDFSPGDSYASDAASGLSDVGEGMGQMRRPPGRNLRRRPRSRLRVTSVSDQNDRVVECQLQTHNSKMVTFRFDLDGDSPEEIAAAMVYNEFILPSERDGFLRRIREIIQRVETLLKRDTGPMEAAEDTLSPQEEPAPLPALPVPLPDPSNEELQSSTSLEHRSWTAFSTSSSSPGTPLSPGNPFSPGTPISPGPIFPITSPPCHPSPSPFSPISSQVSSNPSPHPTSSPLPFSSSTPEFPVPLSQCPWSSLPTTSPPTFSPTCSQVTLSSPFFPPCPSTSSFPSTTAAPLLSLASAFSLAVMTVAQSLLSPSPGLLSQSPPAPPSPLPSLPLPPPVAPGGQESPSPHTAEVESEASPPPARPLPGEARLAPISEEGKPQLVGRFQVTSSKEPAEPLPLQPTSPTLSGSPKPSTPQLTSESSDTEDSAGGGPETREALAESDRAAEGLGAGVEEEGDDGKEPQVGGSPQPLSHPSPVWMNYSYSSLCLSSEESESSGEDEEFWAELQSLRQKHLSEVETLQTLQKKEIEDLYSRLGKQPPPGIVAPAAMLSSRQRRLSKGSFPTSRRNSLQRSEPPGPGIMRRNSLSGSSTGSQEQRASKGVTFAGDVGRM

T5 sequence (Q14289 whole entry): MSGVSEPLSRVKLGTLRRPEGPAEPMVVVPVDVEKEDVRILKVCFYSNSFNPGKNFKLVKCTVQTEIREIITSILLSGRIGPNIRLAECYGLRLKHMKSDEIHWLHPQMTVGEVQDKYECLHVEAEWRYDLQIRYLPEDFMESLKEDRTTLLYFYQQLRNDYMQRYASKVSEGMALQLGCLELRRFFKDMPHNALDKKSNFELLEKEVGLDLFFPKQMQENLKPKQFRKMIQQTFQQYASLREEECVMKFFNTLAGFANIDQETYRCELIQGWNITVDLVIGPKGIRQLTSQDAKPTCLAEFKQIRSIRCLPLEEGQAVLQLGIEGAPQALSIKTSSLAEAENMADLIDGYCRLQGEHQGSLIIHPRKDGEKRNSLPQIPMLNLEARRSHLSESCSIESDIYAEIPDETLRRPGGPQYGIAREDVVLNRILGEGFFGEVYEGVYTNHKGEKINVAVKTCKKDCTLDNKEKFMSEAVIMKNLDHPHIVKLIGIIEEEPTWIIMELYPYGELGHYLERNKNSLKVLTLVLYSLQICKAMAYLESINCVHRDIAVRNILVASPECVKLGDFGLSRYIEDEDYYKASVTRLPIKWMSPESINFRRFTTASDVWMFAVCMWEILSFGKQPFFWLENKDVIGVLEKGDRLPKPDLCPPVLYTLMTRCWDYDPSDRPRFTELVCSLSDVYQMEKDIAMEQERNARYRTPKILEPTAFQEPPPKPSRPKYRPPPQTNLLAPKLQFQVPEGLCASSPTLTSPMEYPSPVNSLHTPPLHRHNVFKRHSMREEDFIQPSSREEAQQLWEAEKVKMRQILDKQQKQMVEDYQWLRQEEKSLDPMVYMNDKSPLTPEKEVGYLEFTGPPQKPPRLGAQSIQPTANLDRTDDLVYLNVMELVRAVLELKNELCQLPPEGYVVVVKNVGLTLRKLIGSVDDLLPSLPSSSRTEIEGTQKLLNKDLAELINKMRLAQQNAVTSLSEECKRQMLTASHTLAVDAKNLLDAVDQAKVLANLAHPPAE
T6 sequence (Q92918 whole entry): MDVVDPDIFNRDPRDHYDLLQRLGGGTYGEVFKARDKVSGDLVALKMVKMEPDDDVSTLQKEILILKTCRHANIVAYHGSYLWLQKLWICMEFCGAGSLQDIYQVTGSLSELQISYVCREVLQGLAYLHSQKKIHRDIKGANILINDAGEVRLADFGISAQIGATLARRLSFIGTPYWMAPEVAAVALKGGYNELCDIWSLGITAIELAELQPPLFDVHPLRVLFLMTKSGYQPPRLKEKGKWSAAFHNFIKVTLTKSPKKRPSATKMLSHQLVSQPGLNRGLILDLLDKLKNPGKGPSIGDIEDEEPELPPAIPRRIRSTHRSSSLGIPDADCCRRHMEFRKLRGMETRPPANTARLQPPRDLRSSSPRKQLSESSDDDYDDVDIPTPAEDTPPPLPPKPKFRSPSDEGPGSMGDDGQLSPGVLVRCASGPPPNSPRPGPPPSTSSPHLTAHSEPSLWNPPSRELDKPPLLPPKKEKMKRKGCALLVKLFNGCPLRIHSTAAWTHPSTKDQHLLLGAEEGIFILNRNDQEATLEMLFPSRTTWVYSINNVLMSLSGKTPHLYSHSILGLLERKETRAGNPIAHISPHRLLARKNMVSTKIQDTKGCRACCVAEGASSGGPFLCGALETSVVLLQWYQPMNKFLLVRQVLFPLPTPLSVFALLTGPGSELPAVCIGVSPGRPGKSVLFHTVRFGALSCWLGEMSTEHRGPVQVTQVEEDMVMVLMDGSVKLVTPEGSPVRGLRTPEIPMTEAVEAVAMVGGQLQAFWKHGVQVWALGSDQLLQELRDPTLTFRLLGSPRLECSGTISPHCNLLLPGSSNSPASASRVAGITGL
T3 sequence (P78362 whole entry): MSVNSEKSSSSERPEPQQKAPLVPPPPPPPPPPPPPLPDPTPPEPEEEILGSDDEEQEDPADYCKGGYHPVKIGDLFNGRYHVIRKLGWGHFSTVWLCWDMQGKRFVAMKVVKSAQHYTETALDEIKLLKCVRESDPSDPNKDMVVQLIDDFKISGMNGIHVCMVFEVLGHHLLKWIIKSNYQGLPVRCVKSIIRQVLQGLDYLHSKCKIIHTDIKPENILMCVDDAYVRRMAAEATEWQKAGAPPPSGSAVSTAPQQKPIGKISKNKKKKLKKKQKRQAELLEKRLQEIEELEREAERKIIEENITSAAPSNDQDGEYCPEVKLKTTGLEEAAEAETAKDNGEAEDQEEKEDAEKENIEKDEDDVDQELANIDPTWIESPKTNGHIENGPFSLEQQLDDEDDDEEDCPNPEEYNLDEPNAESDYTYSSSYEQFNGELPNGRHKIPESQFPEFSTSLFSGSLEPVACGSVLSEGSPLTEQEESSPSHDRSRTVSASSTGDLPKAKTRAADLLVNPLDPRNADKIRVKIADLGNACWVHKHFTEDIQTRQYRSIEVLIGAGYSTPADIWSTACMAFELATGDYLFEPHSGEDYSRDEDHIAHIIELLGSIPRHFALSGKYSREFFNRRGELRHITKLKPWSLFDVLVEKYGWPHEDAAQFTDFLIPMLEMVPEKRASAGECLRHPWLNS
T2 sequence (P06239 whole entry): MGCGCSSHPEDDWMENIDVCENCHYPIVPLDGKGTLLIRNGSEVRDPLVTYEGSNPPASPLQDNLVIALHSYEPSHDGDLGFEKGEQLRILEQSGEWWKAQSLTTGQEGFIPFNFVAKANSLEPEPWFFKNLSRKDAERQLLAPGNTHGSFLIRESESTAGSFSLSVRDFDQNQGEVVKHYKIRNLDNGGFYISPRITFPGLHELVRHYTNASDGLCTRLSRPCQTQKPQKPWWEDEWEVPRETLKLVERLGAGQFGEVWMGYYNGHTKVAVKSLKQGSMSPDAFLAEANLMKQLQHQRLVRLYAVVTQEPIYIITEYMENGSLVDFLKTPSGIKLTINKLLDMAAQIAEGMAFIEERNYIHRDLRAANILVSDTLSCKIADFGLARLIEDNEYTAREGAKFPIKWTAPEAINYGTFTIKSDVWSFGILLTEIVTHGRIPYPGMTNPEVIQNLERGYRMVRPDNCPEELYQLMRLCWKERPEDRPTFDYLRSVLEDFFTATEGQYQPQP

Row | Compound | remaining binding at 1 µM (panel of 468 kinases [1]) [%] | remaining binding at 1 µM (panel of 468 kinases [2]) [%] | remaining binding at 1 µM (panel of 468 kinases [3]) [%] | remaining binding at 1 µM (panel of 468 kinases [4]) [%] | remaining binding at 1 µM (panel of 468 kinases [5]) [%] | remaining binding at 1 µM (panel of 468 kinases [6]) [%] | remaining binding at 1 µM (panel of 468 kinases [7]) [%]
1 | CNc1nc(Nc2ccc(C(=O)N3CCC(N4CCOCC4)CC3)c3c2OCO3)nc2[nH]cc(Cl)c12 [Compound 75, (7-((5-chloro-4-(methylamino)-7H-pyrrolo[2,3-d]pyrimidin-2-yl)amino)benzo[d][1,3]dioxol-4-yl)(4-morpholinopiperidin-1-yl)methanone] | 96 | 100 | 95 | 85 | 40 | 47 | 66
2 | CNc1nc(Nc2ccc(S(=O)(=O)N3CCC(N4CCOCC4)CC3)cc2OC)nc2[nH]cc(Cl)c12 [Compound 12, 5-chloro-N2-(2-methoxy-4-((4-morpholinopiperidin-1-yl)sulfonyl)phenyl)-N4-methyl-7H-pyrrolo[2,3-d]pyrimidine-2,4-diamine] | 96 | 91 | 100 | 96 | 35 | 78 | 61
3 | CNc1nc(Nc2ccc(P3(=O)CCN(C4CCOCC4)CC3)cc2OC)nc2[nH]cc(Cl)c12 [Compound 77, 4-(4-((5-chloro-4-(methylamino)-7H-pyrrolo[2,3-d]pyrimidin-2-yl)amino)-3-methoxyphenyl)-1-(tetrahydro-2H-pyran-4-yl)-1,4-azaphosphinane 4-oxide] | 92 | 100 | 84 | 98 | 27 | 97 | 66
